Measured values: patent US20160008490A1, “METAL CHELATE COMPOUNDS FOR BINDING TO THE PLATELET SPECIFIC GLYCOPROTEIN IIB/IIIA” (BAYER PHARMA AKTIENGESELLSCHAFT, priority 2013, published 2016)

Columns and labels:
[1] = system: human activated platelets; assay: Binding of investigated compounds to human activated platelets (ICP-MS of Gd in pellet and supernatant); format: cell-based; settings: incubation concentration 1 μM molecule; for Concentration within platelet pellet: ADP-activated platelet-rich plasma, 20 minutes
Experimental: For each experiment fresh blood was taken from a volunteer using 10 mL citrate-tubes (Sarstedt S-Monovette 02.1067.001, 10 mL, Citrate 3.13%). The 10 mL citrate-tubes were carefully inverted 10 times to mix blood and anticoagulant. The tubes were stored in an incubator at a temperature of 37° C. until centrifugation (Heraeus miniTherm CTT with integrated rotation- and turning device, turning speed: 19 rotations per minute, Heraeus Instruments GmbH, Hanau/Germany).
For plasma preparation tube centrifugation was carried out for 15 minutes at 1811 g at room temperature (Eppendorf, Centrifuge 5810R). Blood was centrifuged 15 minutes at 201 g at room temperature to produce platelet-rich plasma. The tubes were stored for 30 min at room temperature to get a better separation. The separated platelet-rich plasma was finally centrifuged for further 3 min at 453 g to remove the remaining erythrocytes. The platelet-rich plasma was activated using a final concentration of 5 μM Adenosindiphosphate (ADP, Sigma). The activated platelet-rich plasma was incubated 20 minutes with different concentrations of gadolinium-labeled compound and subsequently was centrifuged 3 minutes at 1360 g. 20 μL of incubation solution was taken to determine the concentration (n=3). […] The gadolinium concentration of supernatant and pellet was determined using an inductively coupled plasma mass spectrometry (ICP-MS Agilent 7500a).
The results for incubation concentration of 1 μM gadolinium-labeled compound are summarized in table 3 (in comparison to Gadovist® standard dose: 100 μmol Gd/kg body weight).

[2] = biological target: T1, human GP IIb/IIIa receptor (Homo sapiens, UniProt P05106+P08514); assay: GPIIb/IIIa affinity assay (displacement of tritiated reference compound from immobilized receptor); format: binding; settings: purified human GPIIb/IIIa, 60 nM 3H-labeled reference compound, 1 hour at room temperature
T1 construct: human GPIIb/IIIa purified from human platelets was immobilized on a 96-well solid plate; purchased Enzyme Research Laboratories Inc. (South Bend, Ind.); host or cells: human platelets (natural source, detergent-solubilised)
T1 sequence (P08514 32-887 limits assumed): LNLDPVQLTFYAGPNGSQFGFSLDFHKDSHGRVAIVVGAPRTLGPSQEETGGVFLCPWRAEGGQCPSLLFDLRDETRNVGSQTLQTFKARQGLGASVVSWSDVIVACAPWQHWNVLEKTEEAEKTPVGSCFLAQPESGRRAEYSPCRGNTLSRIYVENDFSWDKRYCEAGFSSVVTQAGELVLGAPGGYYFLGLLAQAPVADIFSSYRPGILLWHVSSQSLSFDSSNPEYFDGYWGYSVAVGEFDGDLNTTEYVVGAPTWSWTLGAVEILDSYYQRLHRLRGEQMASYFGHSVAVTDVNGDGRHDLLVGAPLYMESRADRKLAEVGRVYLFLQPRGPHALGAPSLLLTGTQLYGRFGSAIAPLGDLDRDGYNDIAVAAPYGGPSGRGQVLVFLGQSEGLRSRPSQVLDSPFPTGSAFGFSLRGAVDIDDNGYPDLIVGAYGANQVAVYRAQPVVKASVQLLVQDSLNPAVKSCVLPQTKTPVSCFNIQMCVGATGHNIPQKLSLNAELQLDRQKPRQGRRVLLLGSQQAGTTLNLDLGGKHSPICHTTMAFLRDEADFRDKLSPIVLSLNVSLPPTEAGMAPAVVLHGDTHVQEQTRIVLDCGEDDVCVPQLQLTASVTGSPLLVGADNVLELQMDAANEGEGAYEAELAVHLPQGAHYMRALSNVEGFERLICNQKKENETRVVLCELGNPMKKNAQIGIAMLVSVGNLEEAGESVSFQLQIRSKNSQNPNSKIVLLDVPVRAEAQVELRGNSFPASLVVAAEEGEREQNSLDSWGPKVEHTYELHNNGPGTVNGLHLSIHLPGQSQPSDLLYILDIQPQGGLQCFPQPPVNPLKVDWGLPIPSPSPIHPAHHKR
T1 sequence (P08514 891-1039 partner limits assumed): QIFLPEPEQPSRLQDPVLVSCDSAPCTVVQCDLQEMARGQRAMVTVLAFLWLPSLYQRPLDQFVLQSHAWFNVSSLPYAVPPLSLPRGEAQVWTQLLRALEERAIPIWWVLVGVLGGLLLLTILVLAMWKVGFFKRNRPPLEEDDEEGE
T1 sequence (P05106 27-788): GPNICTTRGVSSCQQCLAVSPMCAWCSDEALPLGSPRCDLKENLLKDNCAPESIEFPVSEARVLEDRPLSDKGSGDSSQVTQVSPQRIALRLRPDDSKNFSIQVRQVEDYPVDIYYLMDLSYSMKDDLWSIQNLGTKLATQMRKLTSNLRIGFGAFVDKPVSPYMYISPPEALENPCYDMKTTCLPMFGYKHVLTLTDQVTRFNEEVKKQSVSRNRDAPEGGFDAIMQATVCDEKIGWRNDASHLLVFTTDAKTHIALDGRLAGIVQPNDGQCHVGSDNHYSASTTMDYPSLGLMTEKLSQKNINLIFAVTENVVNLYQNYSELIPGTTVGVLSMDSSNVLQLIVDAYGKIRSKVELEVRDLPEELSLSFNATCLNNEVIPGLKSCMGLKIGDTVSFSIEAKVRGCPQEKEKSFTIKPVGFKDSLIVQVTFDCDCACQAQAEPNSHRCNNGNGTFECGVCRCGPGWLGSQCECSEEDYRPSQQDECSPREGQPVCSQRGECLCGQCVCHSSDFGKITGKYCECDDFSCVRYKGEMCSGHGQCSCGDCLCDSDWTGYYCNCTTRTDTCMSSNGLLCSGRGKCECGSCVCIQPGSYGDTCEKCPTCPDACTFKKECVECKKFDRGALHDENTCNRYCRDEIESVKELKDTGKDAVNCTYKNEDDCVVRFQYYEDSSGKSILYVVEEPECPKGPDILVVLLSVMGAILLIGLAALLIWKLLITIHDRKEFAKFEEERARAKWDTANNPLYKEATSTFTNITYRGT
Experimental: Affinity assay: In the first step human GPIIb/IIIa purified from human platelets was immobilized on a 96-well solid plate. After 48 hours the plates were washed and the unspecific binding sites were blocked with Roti®-Block. 2. In the next step, the plates were simultaneously incubated with a tritium labeled known GPIIb/IIIa binder (^3H) mixed with increasing concentrations of the novel compounds (inhibitor). The higher the affinity of the inhibitor, the lower the bound fraction of the tritiated known GPIIb/IIIa binder (^3H) was. The fraction of tritiated compound (^3H), which is not displaced by inhibitor, was measured in a microplate scintillation counter.
Purified human glycoprotein IIb/IIIa (20 mM Tris-HCl, 0.1 M NaCl, 0.1% Triton X-100, 1 mM CaCl2, 0.05% NaN3, 50% Glycerol, pH 7.4) was purchased from Enzyme Research Laboratories Inc. (South Bend, Ind.). The GPIIb/IIIa receptor was diluted in phosphate-buffered saline (Dulbecco's Phosphate Buffered Saline (D-PBS (+)) with calcium and magnesium, GIBCO®, Invitrogen) with 0.01% bovine serum albumin (albumin from bovine serum—lyophilized powder, 96%, Sigma).
The GPIIb/IIIa receptor was immobilized 48 hours at least (100 μL per well, 48 to maximum 96 hours) on a 96-well solid plate (Immuno Plate MaxiSorp™, Nunc, Roskilde, Denmark) at 277 K to 280 K and at a concentration of 0.1 μg per well to 1 μg per well. As negative control one row of the plate (n=8) was incubated just with 2% bovine serum albumin (200 μL per well, albumin from bovine serum—lyophilized powder, ≧96%, Sigma, diluted in D-PBS (+)).
After washing three times with the wash buffer (230 μL per well, Dulbecco's Phosphate Buffered Saline (D-PBS (−)) contains no calcium or magnesium, GIBCO®, Invitrogen) residual exposed plastic and unspecific binding sites were blocked by incubating the plate with a special blocking solution (200 μL per well, Roti®-Block, Car Roth GmbH Co KG, Karlsruhe) containing 2% bovine serum albumin (Albumin from bovine serum—lyophilized powder, ≧96%, Sigma) 1 hour at room temperature.
After washing three times with the wash buffer 50 μL of tritiated reference compound (60 nM, ^3H-labeled compound) and 50 μL of novel compound (inhibitor) were simultaneously added to each well and incubated for 1 hour at room temperature. Several concentrations of each novel inhibitor (0.1, 1, 2, 5, 10, 20 50, 100, 200, 500, 1000, 2000, 5000, 10000 and 20000 nM) were investigated. At each concentration of inhibitor a fourfold determination was performed.
The maximum value of tritiated reference compound was determined without addition of inhibitor (n=8). To exclude unspecific binding of ^3H— reference compound wells without glycoprotein receptors were used as negative controls (n=12, identically treated just without GPIIb/IIIa receptors).
After one hour the plate was washed three times with phosphate-buffered saline (200 μL per well, Dulbecco's Phosphate Buffered Saline (D-PBS (+)), GIBCO®, Invitrogen). Following 140 μL of liquid scintillation cocktail (MicroScint™ 40 aqueous, Perkin Elmer) was added to each well. After 15 min at room temperature the plates were measured at the microplate scintillation counter (TopCount NXT v2.13, Perkin Elmer, Packard Instrument Company).
In the first step human glycoprotein IIb/IIIa, which is purified from human platelets, was immobilized on a 96-well solid plate. After 48 hours at least the plates were washed and the unspecific binding sites were blocked with Roti®-Block. In the next step, the plates were simultaneously incubated with a tritium labeled reference compound and the novel small molecule compound (inhibitor). The higher the affinity of the inhibitor, the smaller is the bound fraction of reference compound. The fraction of tritiated reference compound, which is not displaced by inhibitor, was measured at a microplate scintillation counter. The higher the affinity of the inhibitor, the smaller is the bound fraction of tritium-labeled reference compound. […]

[3] = Relaxivity measurements at 1.41 T in water and plasma; format: physicochemical; settings: relaxivity normalized to Gd, 37° C.
Experimental: Relaxivity measurements at 1.41 T were performed using a MiniSpec mq60 spectrometer (Bruker Analytik, Karlsruhe) operating at a resonance frequency of 60 MHz and a temperature of 37° C. The T1 relaxation times were determined using the standard inversion recovery method. The T2 measurements were done by using the Carr-Purcell-Meiboom-Gill (CPMG) pulse sequence. All measurements were done at concentrations between 0.05 mM and 1 mM of Gd in water and plasma.
The relaxivities ri (where i=1, 2) were calculated on the basis of the measured relaxation rates Ri in water and plasma:
where Ri(0) represent the relaxation rate of the respective solvent and CGd the concentration of the compound normalized to the Gadolium.

| IC50 [2] [nM] | Compound | Concentration within platelet pellet ([1]; pellet washed) [μM Gd] | pellet/supernatant ([1]; ratio of Gd concentration) | r1 plasma [3] [L/mmol/s] | r1 water [3] [L/mmol/s] | Concentration within platelet pellet ([1]; pellet was not washed) [μM Gd] |
| --- | --- | --- | --- | --- | --- | --- |
| 103 | CC(C(=O)NCC(=O)NCCCCc1cc(C#Cc2cncc([C@H](CC(=O)O)NC(=O)[C@@H]3CCCN(C(=O)CCC4CCNCC4)C3)c2)cc(CCCCNC(=O)CNC(=O)C(C)N2CCN(CC(=O)O)CCN(CC(=O)O)CCN(CC(=O)O)CC2)c1)N1CCN(CC(=O)O)CCN(CC(=O)O)CCN(CC(=O)O)CC1 (stereo partly drawn) [Example 6, Digadolinium 2,2′,2″,2′″,2″″,2′″″-({5-[(5-{(1S)-2-carboxy-1-[({(3R)-1-[3-(piperidin-4-yl)-propanoyl]piperidin-3-yl}carbonyl)amino]ethyl}pyridin-3-yl)ethynyl]-1,3-phenylene}-bis[butane-4,1-diylimino(2-oxoethane-2,1-diyl)imino(1-oxopropane-1,2-diyl)-1,4,7,10-tetraazacyclododecane-10,1,4,7-tetrayl])hexaacetate] | 6.8 ± 0.7 |  | 10.3 | 8.5 |  |
| 13 | C[C@@H](C(=O)NCC(=O)NCCCCCCc1ccc(C#Cc2cncc([C@H](CC(=O)O)NC(=O)[C@@H]3CCCN(C(=O)CCC4CCNCC4)C3)c2)cc1)N1CCN(CC(=O)O)CCN(CC(=O)O)CCN(CC(=O)O)CC1 [Example 3, Gadolinium 2,2′,2″-{10-[(2S)-1-({2-[(6-{4-[(5-{(1S)-2-carboxy-1-[({(3R)-1-[3-(piperidin-4-yl)propanoyl]piperidin-3-yl}carbonyl)amino]ethyl}pyridin-3-yl)ethynyl]phenyl}hexyl)-amino]-2-oxoethyl}amino)-1-oxopropan-2-yl]-1,4,7,10-tetraazacyclododecane-1,4,7-triyl}triacetate] |  |  |  |  | 8.3 ± 2.1 |
| 24 | C[C@@H](C(=O)NCC(=O)NCCC#Cc1cncc([C@H](CC(=O)O)NC(=O)[C@@H]2CCCN(C(=O)CCC3CCNCC3)C2)c1)N1CCN(CC(=O)O)CCN(CC(=O)O)CCN(CC(=O)O)CC1 [Example 2, Gadolinium 2,2′,2″-(10-{(2S)-1-[(2-{[4-(5-{(1S)-2-carboxy-1-[({(3R)-1-[3-(piperidin-4-yl)-propanoyl]piperidin-3-yl}carbonyl)amino]ethyl}pyridin-3-yl)but-3-yn-1-yl]amino}-2-oxo-ethyl)amino]-1-oxopropan-2-yl}-1,4,7,10-tetraazacyclododecane-1,4,7-triyl)triacetate] |  |  |  |  | 8.1 ± 0.6 |
| 25 | C[C@@H](C(=O)NCC(=O)NCCCCCCc1ccc(CCc2cncc([C@H](CC(=O)O)NC(=O)[C@@H]3CCCN(C(=O)CCC4CCNCC4)C3)c2)cc1)N1CCN(CC(=O)O)CCN(CC(=O)O)CCN(CC(=O)O)CC1 [Example 4, Gadolinium 2,2′,2″-{10-[(2S)-1-({2-[(6-{4-[(5-{(1S)-2-carboxy-1-[({(3R)-1-[3-(piperidin-4-yl)propanoyl]piperidin-3-yl}carbonyl)amino]ethyl}pyridin-3-yl)ethyl]phenyl}hexyl)-amino]-2-oxoethyl}amino)-1-oxopropan-2-yl]-1,4,7,10-tetraazacyclododecane-1,4,7-triyl}triacetate] | 3.8 ± 0.2 |  |  |  |  |

| Compound | IC50 [2] [nM] | Concentration within platelet pellet ([1]; pellet washed) [μM Gd] | pellet/supernatant ([1]; ratio of Gd concentration) | r1 plasma [3] [L/mmol/s] | r1 water [3] [L/mmol/s] | Concentration within platelet pellet ([1]; pellet was not washed) [μM Gd] |
| --- | --- | --- | --- | --- | --- | --- |
| Gadolinium 2,2′,2″-{10-[(2S)-1-({2-[(6-(3-[(5-{(1S)-2-carboxy-1-[({(3R)-1-[3-(piperidin-4- yl)propanoyl]piperidin-3-yl}carbonyl)amino]ethyl}pyridin-3-yl)ethynyl]phenyl}butyl)-amino]-2-oxoethyl)amino)-1-oxopropan-2-yl]-1,4,7,10-tetraazacyclododecane-1,4,7-triyl}triacetate [Example 5] | 25 | 3.9 ± 0.4 | 123 ± 16 (n = 3) | 9.9 | 8.0 |  |
